Values of other authors, collected in patent publication US20130327676A1, “Packaging of Solid Pharmaceutical Preparations Containing the Active Substance Glyceryl Trinitrate” (G. Pohl-Boskamp GmbH & Co. KG, priority 2011, published 2013).

Columns and labels:
[1] = at 20° C.

O=[N+]([O-])OCC(CO[N+](=O)[O-])O[N+](=O)[O-] [GTN, glyceryl trinitrate]
vapor pressure [1]: 0.25 Pa
active substance originally contained in the tablets found in the polyethylene (polyethylene sealing layer of the packaging material): 84%
active substance remaining in tablets following storage, of originally contained (tablets packaged individually in aluminum foil films with polyethylene sealing layer): less than 10%
